# Assay results as given in ChEMBL document CHEMBL5214990, “Novel Aryl Alkamidazole Derivatives as Multifunctional Antifungal Inhibitors: Design, Synthesis, and Biological Evaluation” (J Med Chem, 2022).
# Calls of active or inactive are those of the source. The calls are words filed in the database; no cut-off is given here.
# Columns and labels:
# Cryptococcus neoformans = assay: Increase in intracellular ROS level in Cryptococcus neoformans assessed as fold increase in fluorescence intensity measured after 12 hrs by fluorescence microscopic analysis relative to control; assay type: functional
# Candida albicans [1] = assay: Increase in intracellular ROS level in Candida albicans assessed as fold increase in fluorescence intensity measured after 12 hrs by fluorescence microscopic analysis relative to control; assay type: functional
# Candida albicans [2] = assay: Induction of morphological changes in Candida albicans ATCC SC5314 assessed as rupturing of marginal regions measured after 96 hrs by transmission electron microscopy; assay type: functional, organism-based
# Candida albicans [3] = assay: Induction of morphological changes in Candida albicans ATCC SC5314 assessed as exudation of fungal cell contents to the external region measured after 96 hrs by transmission electron microscopy; assay type: functional, organism-based
# Candida albicans [4] = assay: Induction of morphological changes in Candida albicans ATCC SC5314 assessed as reduction in fungal cell thickness measured after 48 to 72 hrs by transmission electron microscopy; assay type: functional, organism-based; conditions: time 48-72 hrs
# Candida albicans [5] = assay: Induction of morphological changes in Candida albicans ATCC SC5314 assessed as fungal cells with irregular shrunken characteristics measured after 48 to 72 hrs by transmission electron microscopy; assay type: functional, organism-based; conditions: time 48-72 hrs
# Candida albicans [6] = assay: Induction of morphological changes in Candida albicans ATCC SC5314 assessed as fungal cells with edema, cavitation, nuclear enrichment, accumulation of low density granular materials measured after 48 to 72 hrs by transmission electron microscopy; assay type: functional, organism-based; conditions: time 48-72 hrs
# Mus musculus [7] = assay: Immunomodulatory activity in mouse infected with Candida albicans assessed as increase in expression intensity of CD3+ T cells in spleen at 20 mg/kg, ip administered on days 2,4,6,8,10,12 and measured on day 14 by immunohistochemical staining analysis relative to fluconazole; assay type: functional, T-cell; conditions: time 13 day
# Mus musculus [8] = assay: Immunomodulatory activity in mouse infected with Candida albicans assessed as increase in expression intensity of CD3+ T cells in spleen at 20 mg/kg, ip administered on days 2,4,6,8,10,12 and measured on day 14 by immunohistochemical staining analysis relative to control; assay type: functional, T-cell; conditions: time 13 day
# Candida albicans [9] = assay: Induction of morphological changes in Candida albicans ATCC SC5314 assessed as disintegration of fungal cell membrane and cell wall measured after 96 hrs by transmission electron microscopy; assay type: functional, organism-based
# Mus musculus [10] = assay: Immunomodulatory activity in mouse infected with Candida albicans assessed as increase in expression intensity of CD8+ T cells in spleen at 20 mg/kg, ip administered on days 2,4,6,8,10,12 and measured on day 14 by immunohistochemical staining analysis relative to fluconazole; assay type: functional, T-cell; conditions: time 13 day
SMILES,Activity (Cryptococcus neoformans),Activity (Candida albicans [1]),Activity (Candida albicans [2]),Activity (Candida albicans [3]),Activity (Candida albicans [4]),Activity (Candida albicans [5]),Activity (Candida albicans [6]),fold change (FC) (Mus musculus [7]),fold change (FC) (Mus musculus [8]),Activity (Candida albicans [9]),fold change (FC) (Mus musculus [10])
OC(Cn1cncn1)(Cn1cncn1)c1ccc(F)cc1F [FLUCONAZOLE],Active,Active,,,,,,,,,
C[C@H](C(=O)N(C)CC(O)(Cn1ccnc1)c1ccc(Cl)cc1Cl)c1cccc(C(=O)c2ccccc2)c1 (some centres undefined),,,Active,Active,Active,Active,Active,2.12,2.12,Active,2.12
C[C@H](C(=O)N(C)CC(O)(Cn1ccnc1)c1ccc(Cl)cc1)c1ccc(-c2ccccc2)c(F)c1 (some centres undefined),,,,,,,,2.12,2.12,,2.12
